Experimental data from patent US8501734B2, “Medical intervention in haematological cancers” (Oncotyrol-Center for Personalized Cancer Medicine GmbH …, priority 2008, dated 2013).
Where a name gives a salt, the structure may show the parent alone.

Experiments:
[1] = system: OPM2 cells; assay: Annexin V/PI apoptosis assay (FACS), OPM2 cells; type: cell-based; parameters: apoptosis induction: unit not given here; details: OPM2 cells; for apoptosis induction, combination: Akt inhibitor + Imiquimod 20 μg/ml; for apoptosis induction, single agent: Imiquimod 20 μg/ml or Akt inhibitor alone
Protocol: (§1) After treatment adherent cells were trypsinized (as described before), and resuspended in corresponding full medium. Suspension cells or trypsinized adherent cells, supernatant and washing solution (1×PBS from washing before trypsinization) were pooled and then spun down (300 g for 3 min) washed in 2 ml and resuspended in 1000 of annexin V binding buffer and mixed with 2 μg/ml annexin V-Allophycocyanin (APC) (BD-Pharmingen, San Diego, Calif., USA) and 50 ng/ml of propidium iodide (PI; Sigma Aldrich). At least 10.000 cells were measured per sample using a Becton Dickinson FACSCalibur flow Cytometer (San Jose, Calif., USA). Percentage of Annexin V negative and PI negative cells were depicted in the figures. For the analysis of the pro-apoptotic activity of Imiquimod® in primary MM cells and non-malignant BMMCs, 5×10^5 cells BMMCs cells were treated with or without 40 μg/ml Imiquimod® for the indicated time periods. Cells were then harvested and washed twice with PBS. Detection of apoptotic cells was performed using the annexin V/PI assay according to manufacturers' instruction. Briefly, BMMCs were stained with a mixture of annexin V/FITC (Alexis Coorp., Laeufelfingen, Switzerland), propidium iodide (Sigma), anti-CD38-PE and anti-CD45-PC5 for 15 min at room temperature and immediately analyzed by flow cytometry. The percentages of viable cells (i.e. cells negative for annexin V/FITC and PI) within the MM (CD38^posCD45^low/absent) and non-MM fraction (CD38^neg/CD45^pos) were determined by flow cytometry.
Cells were cultured as described before and, treated with 40 μg/ml Imiquimod® or Gardiquimod® for 24 h, and apoptosis was assayed by AnnexinV/PI staining and FACS analysis.
(§2) Adherent cells were grown in 24-well plates to confluence and treated with 40 μg/ml Imiquimod® for 24 h. Cells were then trypsinized, suspended in full medium, stained for AnnexinV/PI and apoptosis was measured as described before. Suspension cells (250.000) were treated with 40 μg/ml Imiquimod® for 24 h, stained for Annexin/PI and apoptosis was measured as described above (Annexin V/Propidium Iodide apoptosis Assay).
(§3) OPM-2 and U266 cells (2.5×10^5 in 500 μl) were treated with either Imiquimod® alone (10 μg/500 μl), various inhibitors/drugs alone or with the combination of Imiquimod® and inhibitors for 24 or 48 h. In the controls the solvent of the drug has been added in appropriate amounts. Cells were then AnnexinV/PI stained and apoptosis measured as described before.

[2] = system: Akt phosphorylation; assay: Akt phosphorylation by Western blot with phospho-Akt antibody in OPM2 cells; type: cell-based
Protocol: Cells were lysed in lysis-IP-Buffer supplemented with protease inhibitors and sodium orthovanadate. 10 μg of lysate were separated by SDS-PAGE (10% polyacrylamide) and transferred to methanol activated Hypond-P PVDF-membranes (Amersham, Freiburg, Germany) by semi-dry blotting. Membranes were blocked in a 3% bovine serum albumin solution or 5% non fat dry milk solution in phosphate buffered saline (PBS) with 0.1% Tween 20 (PBT). Primary antibodies were applied in blocking solution for 1 h at room temperature or over night at 4° C. Membranes were washed in PBT and incubated with corresponding secondary antibodies in 5% non fat dry milk in PBT for 1 h at room temperature. Cells were washed with PBT, incubated with ECL solution and exposed in a Fluorchem 5500 (Biozym, Oldendorf, Germany).
The efficiency of the inhibition of Akt phosphorylation was monitored by Western blotting with antibodies against phospho-Akt. Antibody for actin served as a loading control (FIG. 7B).

[3] = system: Akt; details: cited from earlier work
[4] = system: PI 3-K, PDK1, or SGK1; details: cited from earlier work
[5] = cited from earlier work
[6] = system: Rh (rhabdomyosarcoma) cell lines; details: read-out: IC50 growth suppression; cited from earlier work
[7] = system: Raji, Daudi, Ramos, Jurkat, C7H2 cell lines; assay: Annexin V/PI apoptosis assay, non-multiple myeloma suspension cell lines; type: cell-based; details: Raji, Ramos, Jurkat, 24 h
Protocol: as §1, §2

[8] = system: peripheral blood mononuclear cells (PBMCs); assay: Annexin V/PI apoptosis assay, PBMCs from healthy donors; type: cell-based, human; details: PBMCs from healthy donors, 48 h, 5 μM Akti1/2 + 20 μg/ml Imiquimod
Protocol: PBMCs were prepared using separation via Ficoll density gradient centrifugation (Biochrom AG, Berlin, Germany) according to the protocol of the manufacturer.
as §1, §2

[9] = system: multiple myeloma cell lines; assay: Annexin V/PI apoptosis assay, multiple myeloma cell line panel; type: cell-based; details: OPM2, LP-1, RPMI, U266, 24 h
Protocol: as §1, §2

[10] = system: PH domain-lacking Akts, PKA, PKC, and SGK; details: concentrations as high as 50 μM; cited from earlier work
[11] = in vivo; cited from earlier work
[12] = system: U266 cells; assay: Annexin V/PI apoptosis assay (FACS), U266 cells; type: cell-based; parameters: apoptosis induction: unit not given here; note: key: 0 for no; + for low; ++: + indicates the range of apoptosis induction; +++: + indicates the range of apoptosis induction; ++++ for very strong apoptosis induction
Protocol: as §1, §2, §3

[13] = system: Flk-1; details: cited from earlier work
[14] = 24 h, Imi 20 μg/ml + drug 10 μM
[15] = 24 h, Imi 20 μg/ml + drug 50 μM
[16] = 48 h, Imi 20 μg/ml + drug 10 μM
[17] = 48 h, Imi 20 μg/ml + drug 50 μM
[18] = 24 h, Imi 20 μg/ml + drug 1 ng/ml
[19] = 24 h, Imi 20 μg/ml + drug 10 ng/ml
[20] = 24 h, Imi 20 μg/ml + drug 50 ng/ml
[21] = 48 h, Imi 20 μg/ml + drug 1 ng/ml
[22] = 48 h, Imi 20 μg/ml + drug 10 ng/ml
[23] = 48 h, Imi 20 μg/ml + drug 50 ng/ml

SMILES: CCN(CC)CCCCN1c2ccccc2Oc2ccc(Cl)cc21 [AktX, 10-(4′-(N-diethylamino)butyl)-2-chlorophenoxazine, HCl]
- apoptosis induction, combination ([1]; 24 h): nearly all cells died
- apoptosis induction, single agent ([1]; 24 h): some apoptosis
- phosphorylation of Akt [2]: inhibited the phosphorylation of Akt
- complete inhibition of Akt phosphorylation and in vitro kinase activity [3]: < 5 µM
- effect on PI 3-K, PDK1, or SGK1 [4]: minimal effect
- solubility [5]: soluble in H2O
- IC50 [6]: 2 to 5 µM

SMILES: O=c1[nH]c2ccccc2n1C1CCN(Cc2ccc(-c3nc4cc5nc[nH]c5cc4nc3-c3ccccc3)cc2)CC1 [Akti1/2, 1,3-Dihydro-1-(1-((4-(6-phenyl-1H-imidazo[4,5-g]quinoxalin-7-yl)phenyl)methyl)-4-piperidinyl)-2H-benzimidazol-2-one]
- apoptosis induction, combination ([1]; 24 h): nearly all cells died
- apoptosis induction, single agent ([1]; 24 h): some apoptosis
- apoptosis induction, combination ([7]; Daudi, C7H2, 5 μM Akti1/2 + 20 μg/ml Imiquimod): affected all cell lines to some extent
- apoptosis induction ([7]; C7H2 (exception Daudi), 5 μM alone): only a mild effect
- sensitivity of PBMCs (general toxicity of the combination) [8]: as sensitive as U266 cells
- phosphorylation of Akt [2]: inhibited the phosphorylation of Akt
- apoptosis induction, combination ([9]; Akti1/2 5 or 10 μM + Imiquimod 20 μg/ml): super-additive effect
- apoptosis induction, single agent ([9]; Imiquimod 20 μg/ml or Akti1/2 5 or 10 μM alone): some apoptosis
- inhibitory effect [10]: does not exhibit any inhibitory effect
- solubility [5]: soluble in DMSO

SMILES: CCn1c(-c2nonc2N)nc2c(C#CC(C)(C)O)ncc(OC[C@H]3CCCNC3)c21 [GSK690693]
- reason for withdrawal and termination of clinical phase I studies [11]: hyperglycaemia

SMILES: CC(C)c1cc(/C=C(\C#N)C(=O)NCCCc2ccccc2)cc(C(C)C)c1O [SU1498]
- apoptosis induction ([1]; 24 h, Imi 20 μg/ml + drug 1 μM): +
- apoptosis induction [1, 14]: ++
- apoptosis induction [1, 15]: ++
- apoptosis induction ([1]; 24 h, drug alone 1 μM): 0
- apoptosis induction ([1]; 24 h, drug alone 10 μM): +
- apoptosis induction ([1]; 24 h, drug alone 50 μM): +
- apoptosis induction ([1]; 48 h, Imi 20 μg/ml + drug 1 μM): ++
- apoptosis induction [1, 16]: +++
- apoptosis induction [1, 17]: +++
- apoptosis induction ([1]; 48 h, drug alone 1 μM): 0
- apoptosis induction ([1]; 48 h, drug alone 10 μM): +
- apoptosis induction ([1]; 48 h, drug alone 50 μM): ++
- apoptosis induction ([12]; 24 h, Imi 20 μg/ml + drug 1 μM): +
- apoptosis induction [12, 14]: ++
- apoptosis induction [12, 15]: ++
- apoptosis induction ([12]; 24 h, drug alone 1 μM): 0
- apoptosis induction ([12]; 24 h, drug alone 10 μM): +
- apoptosis induction ([12]; 24 h, drug alone 50 μM): +
- apoptosis induction ([12]; 48 h, Imi 20 μg/ml + drug 1 μM): ++
- apoptosis induction [12, 16]: ++
- apoptosis induction [12, 17]: ++
- apoptosis induction ([12]; 48 h, drug alone 1 μM): 0
- apoptosis induction ([12]; 48 h, drug alone 10 μM): ++
- apoptosis induction ([12]; 48 h, drug alone 50 μM): ++
- IC50 [13]: 0.7 µM

SMILES: CC(C)C[C@H](NC(=O)[C@H](Cc1ccccc1)NC(=O)c1cnccn1)B(O)O [Velcade]
- apoptosis induction [1, 18]: +
- apoptosis induction [1, 19]: +
- apoptosis induction [1, 20]: +
- apoptosis induction ([1]; 24 h, drug alone 1 ng/ml): 0
- apoptosis induction ([1]; 24 h, drug alone 10 ng/ml): +
- apoptosis induction ([1]; 24 h, drug alone 50 ng/ml): +
- apoptosis induction [1, 21]: ++
- apoptosis induction [1, 22]: ++
- apoptosis induction [1, 23]: +++
- apoptosis induction ([1]; 48 h, drug alone 1 ng/ml): 0
- apoptosis induction ([1]; 48 h, drug alone 10 ng/ml): +++
- apoptosis induction ([1]; 48 h, drug alone 50 ng/ml): +++
- apoptosis induction [12, 18]: +
- apoptosis induction [12, 19]: +
- apoptosis induction [12, 20]: ++
- apoptosis induction ([12]; 24 h, drug alone 1 ng/ml): 0
- apoptosis induction ([12]; 24 h, drug alone 10 ng/ml): ++
- apoptosis induction ([12]; 24 h, drug alone 50 ng/ml): ++
- apoptosis induction [12, 21]: +
- apoptosis induction [12, 22]: ++
- apoptosis induction [12, 23]: ++
- apoptosis induction ([12]; 48 h, drug alone 1 ng/ml): 0
- apoptosis induction ([12]; 48 h, drug alone 10 ng/ml): +++
- apoptosis induction ([12]; 48 h, drug alone 50 ng/ml): +++
